One molecule from BindingDB's records for doi:10.1016/s0960-894x(01)00654-0 (Merck Research Laboratories, 2001) can be followed below.

As usually defined, the IC50 is the concentration at which inhibition is half-maximal.

Assay [1] addresses T1, C-C chemokine receptor type 5 (Homo sapiens, UniProt P51681). Put plainly: ChEBML_39507. From the text: (§1) Binding affinity against C-C chemokine receptor type 5 stably expressed in Chinese hamster ovary (CHO) cells using [125I]-MIP-1 alpha as the radioligand
For assay [2], the target named is T1, C-C chemokine receptor type 5. The description is as §1.

T1 sequence (P51681 whole entry): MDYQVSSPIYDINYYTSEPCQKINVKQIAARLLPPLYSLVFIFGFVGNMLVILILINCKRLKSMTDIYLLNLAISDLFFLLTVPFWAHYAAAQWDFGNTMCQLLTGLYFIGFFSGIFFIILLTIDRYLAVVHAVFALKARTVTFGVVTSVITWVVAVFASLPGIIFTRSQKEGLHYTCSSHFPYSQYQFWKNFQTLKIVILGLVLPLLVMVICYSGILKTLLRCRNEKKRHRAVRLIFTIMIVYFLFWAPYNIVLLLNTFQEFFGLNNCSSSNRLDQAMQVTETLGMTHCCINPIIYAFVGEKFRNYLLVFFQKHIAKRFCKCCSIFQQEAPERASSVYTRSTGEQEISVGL

Take `O=c1[nH]c(Cc2c[nH]c3ccccc23)c(O)n1CC(CCN1CCC(c2ccccc2)CC1)c1cccc(Cl)c1` [(R)-3-[2-(3-Chloro-phenyl)-4-(4-phenyl-piperidin-1-yl)-butyl]-5-(1H-indol-3-ylmethyl)-imidazolidine-2,4-dione]: the IC50 in assay [1] and in assay [2] was 25 nM in each case.
